Laboratory results: the supplement of paper PMC10307832

Compound: Cc1cnc(Nc2ccc(OCCN3CCCC3)cc2)nc1Nc1cccc(S(=O)(=O)NC(C)(C)C)c1 [Fedratinib]
Assay: relative viability (nuclei count vs DMSO), 5 days (fraction); higher = more cells survive
Summary of the method: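 On vehicle-anchored 1536-well plates, lung cancer cell lines held overnight at 37 °C were pinned with five library-drug doses (not always all listed) spaced by √10. With no medium change over 5 days, they were then fixed, permeabilised and Hoechst-stained in one step and imaged at 4×. MetaXpress counted nuclei, and viability is the median across plates of treated-well over vehicle-well nuclei. Acceptance needed control CV below 25% and at least one doubling.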

| Cell Line | relative viability (0.1 µM) | relative viability (0.3162 µM) | relative viability (1 µM) |
| --- | --- | --- | --- |
| 201T | 0.963 | 1 | 0.918 |
| A549 | 0.998 | 0.937 | 0.958 |
| A-427 | 0.928 | 1.02 | 0.555 |
| ABC-1 | 0.827 | 0.954 | 0.816 |
| BEN | 0.842 | 0.91 | 0.831 |
| CAL-12T | 0.93 | 0.996 | 0.859 |
| COR-L23 | 0.958 | 1.04 | 1.03 |
| COR-L 105 | 0.827 | 1.1 | 0.664 |
| Calu-6 | 1.03 | 1.04 | 0.971 |
| ChaGo-K-1 | 0.953 | 0.948 | 0.958 |
| EBC-1 | 0.893 | 0.988 | 0.878 |
| EKVX | 1.06 | 0.952 | 0.978 |
| EMC-BAC-2 | 1.1 | 1.01 | 0.833 |
| EPLC-272H | 0.921 | 0.938 | 0.327 |
| H3255 | 0.963 | 0.923 | 0.86 |
| HARA | 0.863 | 0.903 | 0.803 |
| HCC-15 | 0.869 | 0.972 | 0.911 |
| HCC-44 | 0.963 | 0.982 | 0.882 |
| HCC-78 | 0.87 | 0.869 | 0.96 |
| HCC-366 | 0.997 | 1.02 | 0.962 |
| HCC-827 | 1.07 | 1.01 | 1.03 |
| HOP-62 | 1.01 | 0.907 | 0.987 |
| IA-LM | 1.01 | 0.87 | 0.931 |
| LC-2-ad | 0.983 | 1.03 | 0.588 |
| LCLC-97TM1 | 1.05 | 1.02 | 0.778 |
| LCLC-103H | 0.952 | 1 | 0.932 |
| LK-2 | 1.09 | 1.03 | 0.734 |

| Cell Line | relative viability (0.1 µM) | relative viability (0.3162 µM) | relative viability (1 µM) |
| --- | --- | --- | --- |
| LOU-NH91 | 0.893 | 1.08 | 0.723 |
| LU99A | 0.969 | 0.934 | 0.924 |
| LXF-289 | 0.978 | 0.997 | 0.974 |
| NCI-H23 | 1.01 | 0.908 | 0.597 |
| NCI-H322M | 0.873 | 1 | 0.678 |
| NCI-H358 | 0.999 | 0.911 | 0.884 |
| NCI-H441 | 1.03 | 1.04 | 0.734 |
| NCI-H460 | 0.997 | 0.974 | 0.979 |
| NCI-H520 | 0.93 | 0.997 | 0.9 |
| NCI-H522 | 0.971 | 1.16 | 0.758 |
| NCI-H596 | 0.99 | 0.973 | 0.851 |
| NCI-H647 | 0.867 | 0.952 | 0.777 |
| NCI-H650 | 0.709 | 0.892 | 0.418 |
| NCI-H661 | 0.876 | 1.06 | 0.914 |
| NCI-H727 | 1.03 | 0.928 | 0.813 |
| NCI-H838 | 0.928 | 0.996 | 0.8 |
| NCI-H1299 | 1.01 | 1.03 | 1 |
| NCI-H1355 | 1 | 0.993 | 0.904 |
| NCI-H1395 | 0.784 | 0.955 | 0.7 |
| NCI-H1437 | 0.978 | 0.982 | 0.926 |
| NCI-H1563 | 0.949 | 1.04 | 0.933 |
| NCI-H1623 | 1.04 | 0.987 | 0.935 |
| NCI-H1648 | 0.889 | 0.901 | 0.694 |
| NCI-H1650 | 0.715 | 1.01 | 0.748 |
| NCI-H1651 | 0.958 | 0.984 | 0.945 |
| NCI-H1666 | 0.859 | 1.04 | 0.982 |
| NCI-H1703 | 0.518 | 0.794 | 0.686 |

| Cell Line | relative viability (0.1 µM) | relative viability (0.3162 µM) | relative viability (1 µM) |
| --- | --- | --- | --- |
| NCI-H1734 | 1 | 0.97 | 0.853 |
| NCI-H1755 | 0.991 | 1 | 0.909 |
| NCI-H1792 | 0.835 | 0.989 | 0.815 |
| NCI-H1793 | 0.884 | 0.886 | 0.619 |
| NCI-H1915 | 1.03 | 0.97 | 0.658 |
| NCI-H1944 | 0.965 | 1.01 | 0.909 |
| NCI-H1975 | 0.933 | 0.939 | 0.798 |
| NCI-H1993 | 0.822 | 1.03 | 0.835 |
| NCI-H2009 | 0.956 | 1.08 | 0.987 |
| NCI-H2023 | 1.02 | 0.962 | 0.754 |
| NCI-H2085 | 0.929 | 1.02 | 0.883 |
| NCI-H2087 | 1 | 0.99 | 0.856 |
| NCI-H2126 | 0.95 | 0.98 | 0.927 |
| NCI-H2170 | 1.05 | 1.01 | 0.9 |
| NCI-H2228 | 0.884 | 0.785 | 0.723 |
| NCI-H2342 | 1.08 | 1.06 | 0.994 |
| NCI-H2347 | 1.04 | 0.932 | 0.938 |
| NCI-H2405 | 0.937 | 0.939 | 0.834 |
| NCI-H3122 | 1.05 | 1.02 | 0.892 |
| PC-3 [JPC-3] | 0.987 | 1.03 | 0.953 |
| PC-14 | 0.986 | 1.09 | 0.906 |
| RERF-LC-KJ | 1.03 | 1.04 | 0.917 |
| SK-LU-1 | 1.06 | 0.906 | 0.868 |
| SK-MES-1 | 0.977 | 1.02 | 0.911 |
| SW 900 | 0.78 | 0.847 | 0.768 |
| SW 1573 | 0.987 | 0.998 | 0.897 |
